The source of these data is ChEMBL document CHEMBL1127526, “A comparison of the cytotoxic and physical properties of aziridinyl quinone derivatives based on the pyrrolo[1,2-a]benzimidazole and pyrrolo[1,2-a]indole ring systems” (J Med Chem, 1994).

This assay can be described thus: The highest concentration employed in the cytotoxicity assay was reported. The assay is classed as functional.

With `CC(=O)OC1CCn2c1nc1c2C(=O)C(C)=C(N2CC2)C1=O` (stereo unspecified), the Concentration is 1 M.
